One assay has as its target T1, 14-3-3ζ/ERRγ peptide (Homo sapiens, UniProt P63104).
T1 construct: made in house; host or cells: NiCo21 (DE3) E. coli
Description: FA peptide screen, 14-3-3ζ titration to client peptide and compound: ERRγ. The format is binding. The following applies: 250 μM compound, 100 nM peptide; +1 Cys. The method, then:
Since the hub protein 14-3-3 binds to hundreds of phosphoprotein partners, selectivity of PPI stabilization is a major challenge. The interplay of chemical reactivity, and the topology and functionality of the composite binding pocket shaped by 14-3-3 and Tau potentially provide entries towards selective stabilization. […] Here, 14-3-3ζ was titrated to a constant concentration of client peptide (100 nM) and compound (250 μM) to determine the SF250μM values for the particular 14-3-3 PPI. A variety of 14-3-3 binding proteins was represented in this client panel whereby the size and hydrophobicity of the +1 amino acid were varied. […]
chromatography (HisTrap high performance cartridges, Cytiva). […] Dialyzed protein was concentrated to ∼40 mg/mL, analyzed by Q -Tof LC/MS, and aliquots were flash -frozen for storage at −80 °C. […]
0.1% (v/v) Tween20, 0.1% (w/v) BSA). […] Measurements were performed directly after plate preparation, using a Tecan SPARK plate reader at room temperature ( λex: 485±20 nm; λem: 535±25 nm; mirror: automatic; flashes: 30; settle time: 1 ms; gain: optimal; Z -position: calculated from well). […] All data were analyzed using GraphPad Prism (10.0.1) and fitted with a four -parameter logistic model (4PL) to determine binding affinities (dissociation constant, KD). […]
Fluorescence Anisotropy – peptide screen […]

In a further assay the test system is 14-3-3/Pin1 complex. Further details: method as in PMID 34047554. The following applies: 100 μM compound; cited from earlier work.

T1 sequence (P63104 whole entry, other chains not shown): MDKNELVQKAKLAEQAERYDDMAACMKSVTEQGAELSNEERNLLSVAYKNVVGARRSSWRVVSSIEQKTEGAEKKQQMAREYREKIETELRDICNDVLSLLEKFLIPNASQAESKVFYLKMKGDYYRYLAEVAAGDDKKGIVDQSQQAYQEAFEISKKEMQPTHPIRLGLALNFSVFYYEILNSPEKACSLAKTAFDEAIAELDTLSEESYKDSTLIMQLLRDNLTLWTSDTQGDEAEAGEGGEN

With `CCc1ccc(-c2nccn2-c2ccc(C=O)c(Br)c2)cc1` [Compound 18], the “stabilization of 14-3-3/ERRγ peptide (in words)” value on 14-3-3ζ/ERRγ peptide is recorded as “did not show significant stabilizing activity”.

Consider `O=Cc1ccc(-n2ccnc2-c2ccccc2)cc1Br` [Compound 1], for which the “SF100μM for stabilization of the 14-3-3/Pin1 complex” value with 14-3-3/Pin1 complex is on record as 10.

Source of the values: article PMC11892739, “Site-specific molecular glues for the 14-3-3/Tau pS214 protein–protein interaction via reversible covalent imine tethering” (RSC Medicinal Chemistry, 2025).
